In article PMC9516332 (Frontiers in Oncology, 2022):
Like-named read-outs stand apart in the source and are kept apart here.

Key:
AP-1060 (ETV6-NTRK3) = assay: Cell viability assay; settings: read-out: IC50 in cell proliferation assay
134 cancer cell lines = assay: Cell viability assay (ATPlite, 72 hours), IC50 on cancer cell line panel

Work on CCc1cc2c(cc1N1CCC(N3CCOCC3)CC1)C(C)(C)c1[nH]c3cc(C#N)ccc3c1C2=O [alectinib] yielded an IC50 (AP-1060 (ETV6-NTRK3)) of 1.13 µM, an IC50 (134 cancer cell lines; HEC-6, read-out: IC50 in cell proliferation assay) of over 10 µM and an IC50 (134 cancer cell lines; Homo sapiens, 769-P, read-out: IC50 in cell proliferation assay) of 9.15 µM. It also gave an IC50 (134 cancer cell lines; Homo sapiens, 786-0, read-out: IC50 in cell proliferation assay) of over 10 µM, an IC50 (134 cancer cell lines; Homo sapiens, A 172, read-out: IC50 in cell proliferation assay) of over 10 µM and an IC50 (134 cancer cell lines; Homo sapiens, A204, read-out: IC50 in cell proliferation assay) of over 10 µM. It also gave an IC50 (134 cancer cell lines; Homo sapiens, A498, read-out: IC50 in cell proliferation assay) of over 10 µM, an IC50 (134 cancer cell lines; Homo sapiens, A549, read-out: IC50 in cell proliferation assay) of over 10 µM and an IC50 (134 cancer cell lines; Homo sapiens, A704, read-out: IC50 in cell proliferation assay) of over 10 µM. The IC50 (134 cancer cell lines; Homo sapiens, A-375, read-out: IC50 in cell proliferation assay) was over 10 µM, the IC50 (134 cancer cell lines; Homo sapiens, A-427, read-out: IC50 in cell proliferation assay) was over 10 µM and the IC50 (134 cancer cell lines; Homo sapiens, ACHN, read-out: IC50 in cell proliferation assay) was 3.52 µM. For the same compound, the IC50 (134 cancer cell lines; Homo sapiens, AN3-CA, read-out: IC50 in cell proliferation assay) was over 10 µM, the IC50 (134 cancer cell lines; Homo sapiens, ASPC1, read-out: IC50 in cell proliferation assay) was over 10 µM and the IC50 (134 cancer cell lines; Homo sapiens, AU565, read-out: IC50 in cell proliferation assay) was over 10 µM. For the same compound, the IC50 (134 cancer cell lines; Homo sapiens, BT-20, read-out: IC50 in cell proliferation assay) was over 10 µM, the IC50 (134 cancer cell lines; Homo sapiens, BT-474, read-out: IC50 in cell proliferation assay) was over 10 µM and the IC50 (134 cancer cell lines; Homo sapiens, BT-549, read-out: IC50 in cell proliferation assay) was 2.71 µM. For the same compound, the IC50 (134 cancer cell lines; Homo sapiens, BXPC-3, read-out: IC50 in cell proliferation assay) was over 10 µM, the IC50 (134 cancer cell lines; Homo sapiens, C-33-A, read-out: IC50 in cell proliferation assay) was 1.99 µM and the IC50 (134 cancer cell lines; Homo sapiens, CAL-27, read-out: IC50 in cell proliferation assay) was 1.18 µM. The IC50 (134 cancer cell lines; Homo sapiens, CCF-STTG1, read-out: IC50 in cell proliferation assay) was 3.02 µM, the IC50 (134 cancer cell lines; Homo sapiens, CCRF-CEM, read-out: IC50 in cell proliferation assay) was over 10 µM and the IC50 (134 cancer cell lines; Homo sapiens, COLO 205, read-out: IC50 in cell proliferation assay) was over 10 µM. For the same compound, the IC50 (134 cancer cell lines; Homo sapiens, COLO-829, read-out: IC50 in cell proliferation assay) was over 10 µM, the IC50 (134 cancer cell lines; Homo sapiens, DLD-1, read-out: IC50 in cell proliferation assay) was over 10 µM and the IC50 (134 cancer cell lines; Homo sapiens, DU-145, read-out: IC50 in cell proliferation assay) was over 10 µM. For the same compound, the IC50 (134 cancer cell lines; Homo sapiens, DU-4475, read-out: IC50 in cell proliferation assay) was over 10 µM, the IC50 (134 cancer cell lines; Homo sapiens, Daoy, read-out: IC50 in cell proliferation assay) was 3.45 µM and the IC50 (134 cancer cell lines; Homo sapiens, DoTc2-4510, read-out: IC50 in cell proliferation assay) was 0.477 µM. The IC50 (134 cancer cell lines; Homo sapiens, EOL1, read-out: IC50 in cell proliferation assay) was 0.193 µM, the IC50 (134 cancer cell lines; Homo sapiens, FaDu, read-out: IC50 in cell proliferation assay) was over 10 µM and the IC50 (134 cancer cell lines; Homo sapiens, G-361, read-out: IC50 in cell proliferation assay) was over 10 µM. The IC50 (134 cancer cell lines; Homo sapiens, HCC827, read-out: IC50 in cell proliferation assay) was 1.59 µM, the IC50 (134 cancer cell lines; Homo sapiens, HCC4006, read-out: IC50 in cell proliferation assay) was 1.33 µM and the IC50 (134 cancer cell lines; Homo sapiens, HCT-15, read-out: IC50 in cell proliferation assay) was over 10 µM. For the same compound, the IC50 (134 cancer cell lines; Homo sapiens, HCT-116, read-out: IC50 in cell proliferation assay) was over 10 µM, the IC50 (134 cancer cell lines; Homo sapiens, HEC-1, read-out: IC50 in cell proliferation assay) was 1.32 µM and the IC50 (134 cancer cell lines; Homo sapiens, HEC-1B, read-out: IC50 in cell proliferation assay) was over 10 µM. The IC50 (134 cancer cell lines; Homo sapiens, HL-60, read-out: IC50 in cell proliferation assay) was over 10 µM, the IC50 (134 cancer cell lines; Homo sapiens, HT, read-out: IC50 in cell proliferation assay) was over 10 µM and the IC50 (134 cancer cell lines; Homo sapiens, HT-1080, read-out: IC50 in cell proliferation assay) was 7.55 µM. For the same compound, the IC50 (134 cancer cell lines; Homo sapiens, Hs746T, read-out: IC50 in cell proliferation assay) was over 10 µM, the IC50 (134 cancer cell lines; Homo sapiens, Hs-578T, read-out: IC50 in cell proliferation assay) was 4.92 µM and the IC50 (134 cancer cell lines; Homo sapiens, HuTu80, read-out: IC50 in cell proliferation assay) was over 10 µM. It also gave an IC50 (134 cancer cell lines; Homo sapiens, J82, read-out: IC50 in cell proliferation assay) of over 10 µM, an IC50 (134 cancer cell lines; Homo sapiens, Jurkat E6.1, read-out: IC50 in cell proliferation assay) of over 10 µM and an IC50 (134 cancer cell lines; Homo sapiens, K562, read-out: IC50 in cell proliferation assay) of over 10 µM. It also gave an IC50 (134 cancer cell lines; Homo sapiens, KATO III, read-out: IC50 in cell proliferation assay) of over 10 µM, an IC50 (134 cancer cell lines; Homo sapiens, KG-1, read-out: IC50 in cell proliferation assay) of 0.442 µM and an IC50 (134 cancer cell lines; Homo sapiens, KLE, read-out: IC50 in cell proliferation assay) of over 10 µM. It also gave an IC50 (134 cancer cell lines; Homo sapiens, KMS-11, read-out: IC50 in cell proliferation assay) of over 10 µM, an IC50 (134 cancer cell lines; Homo sapiens, KU812, read-out: IC50 in cell proliferation assay) of over 10 µM and an IC50 (134 cancer cell lines; Homo sapiens, Kasumi 1, read-out: IC50 in cell proliferation assay) of 1.53 µM. It also gave an IC50 (134 cancer cell lines; Homo sapiens, LC-2-ad, read-out: IC50 in cell proliferation assay) of 1.11 µM, an IC50 (134 cancer cell lines; Homo sapiens, LNCaP-Clone-FGC, read-out: IC50 in cell proliferation assay) of over 10 µM and an IC50 (134 cancer cell lines; Homo sapiens, LS174T, read-out: IC50 in cell proliferation assay) of over 10 µM. It also gave an IC50 (134 cancer cell lines; Homo sapiens, LS-411N, read-out: IC50 in cell proliferation assay) of over 10 µM.
